Reference: ChEMBL document CHEMBL3045087, “Physicochemical interaction of antitumor acridinone derivatives with DNA in view of QSAR studies” (2011)

These compounds were tested on P388 (assay: Antitumor activity against Mus musculus (mouse) P388 cells xenografted in Mus musculus (mouse) assessed as increase in survival time relative to control). Settings: not given.
Format: functional
Parameters: concentration or dose not given beside the values

Going from `CN(C)CCCCCNc1ccc2ncn3c4ccc(O)cc4c(=O)c1c23` to `CN(C)CCCNc1ccc2ncn3c4ccc(O)cc4c(=O)c1c23`, the “Increase in survival time” value rises from 85% to 120%.

Going from `CN(C)CCNc1ccc2nnn3c4ccc(C(C)(C)C)cc4c(=O)c1c23` to `CN(C)CCNc1ccc2nnn3c4ccc(O)cc4c(=O)c1c23`, the “Increase in survival time” value rises from 0% to 102%.

Compared with `CN(C)CCCNc1ccc2nnn3c4ccc(O)cc4c(=O)c1c23`, `Cc1ccc2c(c1)c(=O)c1c(NCCCN(C)C)ccc3nnn2c31` is lower in “Increase in survival time” value: 165% for the first, 18% for the second.

First: CCN(CC)CCCCCNc1ccc2ncn3c4ccc(C)cc4c(=O)c1c23
Second: CCN(CC)CCNc1ccc2ncn3c4ccc(OC)cc4c(=O)c1c23
The “Increase in survival time” value of the first is lower: 20% for the first, 96% for the second.

First: CCNCCNc1ccc2nnn3c4ccc(O)cc4c(=O)c1c23
Second: CN(C)CCN(C)c1ccc2nnn3c4ccc(O)cc4c(=O)c1c23
The “Increase in survival time” value of the first is higher: 78% for the first, 10% for the second.

Compared with `CCN(CC)CCNc1ccc2nc(C)n3c4ccc(O)cc4c(=O)c1c23`, `CCN(CC)CCNc1ccc2ncn3c4ccc(O)cc4c(=O)c1c23` [C-1311] is lower in “Increase in survival time” value: 185% for the first, 93% for the second.

First: CN(C)CCNc1ccc2ncn3c4ccccc4c(=O)c1c23
Second: CN(C)CCCNc1ccc2ncn3c4ccccc4c(=O)c1c23
The “Increase in survival time” value of the first is higher: 90% for the first, 25% for the second.

Compared with `CCN(CC)CCNc1ccc2ncn3c4cc(O)ccc4c(=O)c1c23`, `CCN(CC)CCNc1ccc2ncn3c4ccccc4c(=O)c1c23` is higher in “Increase in survival time” value: 27% for the first, 55% for the second.

First: CCN(CC)CCNc1ccc2ncn3c4ccc(C(C)(C)C)cc4c(=O)c1c23
Second: CN(C)CCNc1ccc2ncn3c4ccc(O)cc4c(=O)c1c23
The “Increase in survival time” value of the first is lower: 0% for the first, 110% for the second.

Going from `CN(C)CCNc1ccc2nnn3c4ccccc4c(=O)c1c23` to `CN(C)CCCCCNc1ccc2ncn3c4ccccc4c(=O)c1c23`, the “Increase in survival time” value falls from 77% to 10%.

Each compound was assayed on DNA. Settings: Bos taurus.
Description: Binding affinity to Bos taurus (calf) thymus DNA assessed as change in melting temperature at drug to DNA base pair ratio 0.25 M

Going from `CN(C)CCCCCNc1ccc2ncn3c4ccc(O)cc4c(=O)c1c23` to `CN(C)CCCNc1ccc2ncn3c4ccc(O)cc4c(=O)c1c23`, the ΔTm falls from 13.1 °C to 3.5 °C.

Compared with `CN(C)CCNc1ccc2nnn3c4ccc(C(C)(C)C)cc4c(=O)c1c23`, `CN(C)CCNc1ccc2nnn3c4ccc(O)cc4c(=O)c1c23` is higher in ΔTm: 6.8 °C for the first, 13.1 °C for the second.

Compared with `CN(C)CCCNc1ccc2nnn3c4ccc(O)cc4c(=O)c1c23`, `Cc1ccc2c(c1)c(=O)c1c(NCCCN(C)C)ccc3nnn2c31` is lower in ΔTm: 15.1 °C for the first, 11.5 °C for the second.

Compared with `CCN(CC)CCCCCNc1ccc2ncn3c4ccc(C)cc4c(=O)c1c23`, `CCN(CC)CCNc1ccc2ncn3c4ccc(OC)cc4c(=O)c1c23` is higher in ΔTm: 10.5 °C for the first, 11.5 °C for the second.

Going from `CCNCCNc1ccc2nnn3c4ccc(O)cc4c(=O)c1c23` to `CN(C)CCN(C)c1ccc2nnn3c4ccc(O)cc4c(=O)c1c23`, the ΔTm rises from 7.1 °C to 8.1 °C.

Going from `CCN(CC)CCNc1ccc2nc(C)n3c4ccc(O)cc4c(=O)c1c23` to `CCN(CC)CCNc1ccc2ncn3c4ccc(O)cc4c(=O)c1c23` [C-1311], the ΔTm falls from 15.3 °C to 13.7 °C.

First: CN(C)CCNc1ccc2ncn3c4ccccc4c(=O)c1c23
Second: CN(C)CCCNc1ccc2ncn3c4ccccc4c(=O)c1c23
The ΔTm of the first is lower: 9.5 °C for the first, 11.5 °C for the second.

Compared with `CCN(CC)CCNc1ccc2ncn3c4cc(O)ccc4c(=O)c1c23`, `CCN(CC)CCNc1ccc2ncn3c4ccccc4c(=O)c1c23` is lower in ΔTm: 8.3 °C for the first, 7.2 °C for the second.

Compared with `CCN(CC)CCNc1ccc2ncn3c4ccc(C(C)(C)C)cc4c(=O)c1c23`, `CN(C)CCNc1ccc2ncn3c4ccc(O)cc4c(=O)c1c23` is higher in ΔTm: 2.4 °C for the first, 12.3 °C for the second.

Compared with `CN(C)CCNc1ccc2nnn3c4ccccc4c(=O)c1c23`, `CN(C)CCCCCNc1ccc2ncn3c4ccccc4c(=O)c1c23` is higher in ΔTm: 9.1 °C for the first, 9.9 °C for the second.
